Experiment [1] concerns 5-fluorouracil (5-FU) resistant strain of colon cancer cell strain DLD-1. Briefly: IC50 measurement on 5-fluorouracil resistant strain derived from DLD-1. As to conditions: Homo sapiens; DLD-1 maintained 6 months or longer in the presence of 5-fluorouracil; confirmed resistant strain; read-out: IC50 with respect to 5-fluorouracil for the cultured cells. In kind it is cell-based.

In experiment [2] the test system is trifluridine (FTD) resistant strain of colon cancer cell strain DLD-1. The experiment is described as follows: IC50 measurement on trifluridine resistant strain derived from DLD-1. To be noted: Homo sapiens; DLD-1 maintained 6 months or longer in the presence of trifluridine; confirmed resistant strain; read-out: IC50 with respect to trifluridine for the cultured cells. In kind it is cell-based. As for the experimental part: Quantitative analysis of a microRNA was performed by tunneling current measurement. Colon cancer cell strain (DLD1) and 5-fluorouracil (5-FU) or trifluridine (FTD) resistant strains were used as samples.
Cancer cell strain DLD-1 obtained from a cell bank was maintained in a culture for 6 months or longer in the presence of trifluridine or 5-fluorouracil (Aldrich-Sigma) (about […]). The maintained culture was passaged about twice a week to maintain 60 to 80% confluence at 37° C. in a
DMEM medium supplemented with 10% serum on a plastic dish.

By IC50 is commonly meant the midpoint of a concentration-inhibition curve.

As for `O=c1[nH]cc(F)c(=O)[nH]1` [5-fluorouracil], in experiment [1], the IC50 turned out to be 300 µM. Regarding `O=c1[nH]c(=O)n([C@H]2C[C@H](O)[C@@H](CO)O2)cc1C(F)(F)F` [trifluridine], in experiment [2], the IC50 came to 300 µM.

The values are drawn from patent US20230194472A1, “MICRORNA ANALYSIS USING TUNNELING CURRENT” (Osaka University, priority 2019, published 2023).
